This is an account of results in publication PMC11550293, “Biochemical characterization of a recombinant laccase from Halalkalibacterium halodurans C-125 and its application in the biotransformation of organic compounds” (Biotechnology Letters, 2024).

One data set deals with T1, rLac-HhC125 (Halalkalibacterium halodurans, UniProt Q9KB49).
T1 construct: gene BH2082
The data set is described as follows: biochemical. Particulars: read-out: Residual activity (%) ± SD (0 min).

Substrate in the data set “purified protein”: COc1cc(C=NN=Cc2cc(OC)c(O)c(OC)c2)cc(OC)c1O
Kind of data set: purified protein. The format is biochemical, Halalkalibacterium halodurans. To be noted: 100 mM Tris-HCl pH 8, 2 mM CuSO4, enzyme pre-treated 50 °C 20 min, partially purified enzyme.

For `NC(=S)Nc1ccccc1` [Phenylthiourea], on rLac-HhC125, the remaining activity at 1000 µM came out at 3.9 ± 3.8%.

B1: rLac-HhC125 (Halalkalibacterium halodurans C-125) (protein)
chain: DDHSEMDHGNNQQDEQNEGTFEDGKKVFNLEVTETHWMFNDEVMMDAWTYNGTLPGQEIRVQEGDEVVINVKNSLNVPTALHLHGFPVPNEMDGVPGVTQNAIMPGEEFTYEYQANVPGTYWYHSHQDGATQVDRGLYGVFIVEPVDPESYDTDVAIVIDEFASMGMGMGMDHSTMDHGDMEHDGNDDMSHSEMMNEMYDTMVINGKADPQIESINVVEGNRVKLRFVNAGLFTQVVSIPEHSFKITHYDGQPVNEPDVLQDTAFRIAPAERYDLEIIMDNPGAWGIQVFAEENQERLQALIPLVYEEYEDEELQTVDSISSFFDLTTYGIPKELDIGDITKEYDMLLGSDDGGDTFTINGKKFPNHEIYDVEEGDMVKFTIINDTDFDHPMHLHGDFFHVISKGGKAIQGSPVLKDTLNVRPGETYEIVFEAKNPGNWMFHCHEFHHASGGMVAEIHYEGFELPFTPDPNIPNMPE
notes: native signal peptide removed (forward primer encodes MDDHSEMD...), pET28-a(+) BamHI/HindIII, E. coli BL21(DE3); partially purified by SEC; theoretical monomer 54 kDa; monomer and possibly dimer
In general, Km refers to the substrate concentration at which the rate is half of its maximum. With B1, the Km in the data set “purified protein” worked out at 2.48 µM.
